The record followed here is patent publication US20080076824A1, “Compounds That Inhibit Replication Of Human Immunodeficiency Virus” (priority 2004, published 2008).

The structures appear in SMILES notation. Values after ≈ are worked out from the molar mass of the structure shown. Read-outs that look alike come from different tables or passages of the source. Non-standard residues stand in square brackets, D forms with d. Residues, ends and D or L forms follow the SMILES beside them. pGlu = O=C1CC[C@@H](C(=O)O)N1 Where only a bound is given, the exact number is not on record here.

Data set [1] deals with HIV-2 (ROD). The data set is described as follows: microbe, parasite or virus in culture. It counts as cell-based. Conditions: 2 (ROD). As to the method:
Human T-lymphocytic CEM cells (4.5×10^5 cells per ml) were suspended in fresh cell culture medium and infected with HIV-1 (IIIB and NL4.3) or HIV-2 (ROD or EHO) at 100 CCID50 (1 CCID50 being the virus dose infective for 50% of the cell cultures) per ml of cell suspension. Then, 100 μl of the infected cell suspension were transferred to microplate wells, mixed with 100 μl of appropriate (freshly prepared) dilutions of the test compounds (i.e., at final concentrations of […]), and were further incubated at 37° C. After 4 to 5 days, giant cell formation was recorded microscopically in the CEM cell cultures. […] (See Table 1).
MT-4, C8166 or CEM cells (4 to 5×10^5 cells per ml) were suspended in fresh culture medium (RPMI-1640 medium supplemented with 10% fetal bovine serum (FBS) (BioWittaker Europe, Verviers, Belgium), 2 mM L-glutamine and […] NaHCO3). Subsequently, the cells were infected with HIV-1 (IIIB) or HIV-2(ROD) at ˜100 CCID50 (1 CCID50 being the dose infective for 50% of the cell cultures) per ml of cell suspension. Then, 100 μl of the infected cell suspension were transferred to 96-well microplate wells, mixed with 100 μl of the appropriate (5-fold) dilutions of the test compounds and further incubated at 37° C. After 4 to 5 days, giant cell formation was recorded microscopically in the CEM and C8166 cell cultures. The MT-4 cell cultures were treated with trypan blue and the number of viable cells was determined.

The nature of data set [2]: in vitro. Particulars: human.
Data set [3] concerns HIV-2 (EHO). Here is the method: Human T-lymphocytic CEM cells (4.5×10^5 cells per ml) were suspended in fresh cell culture medium and infected with HIV-1 (IIIB and NL4.3) or HIV-2 (ROD or EHO) at 100 CCID50 (1 CCID50 being the virus dose infective for 50% of the cell cultures) per ml of cell suspension. Then, 100 μl of the infected cell suspension were transferred to microplate wells, mixed with 100 μl of appropriate (freshly prepared) dilutions of the test compounds (i.e., at final concentrations of […]), and were further incubated at 37° C. After 4 to 5 days, giant cell formation was recorded microscopically in the CEM cell cultures.

Data set [4] has as its system HIV-1 (IIIB). Conditions: in words.
Data set [5] has as its target T1, CD26/dipeptidylpeptidase IV (Homo sapiens, UniProt P27487).
T1 construct: made in house; by own knowledge a natural human source (seminal plasma), not recombinant
The data set is described as follows: Conversion of GPG-NH2 to GP-OH and G-NH2 by purified CD26. In kind it is biochemical. Here is the method:
In some experiments, approximately, 100 μM GPG-NH2 was exposed to 25 units/l of purified CD26 and the mixture was incubated for up to 400 minutes at room temperature. The lymphocyte surface glycoprotein CD26/dipeptidylpeptidase IV was purified as described before. (See De Meester, J. Immunol. Methods, 189:99-105 (1996), herein expressly incorporated by reference in its entirety). At different time points, an aliquot of the reaction mixture was withdrawn and analyzed on an electrospray ion trap mass spectrometer (Esquire, Bruker, Bremen, Germany). The appearance of the dipeptide GP-OH upon release from the amino terminal end of the GPG-NH2 molecule, as well as, the disappearance of intact GPG-NH2 from the reaction mixture was determined and monitored by electrospray ion trap mass spectometric analysis at different time points (See FIG. 3). Under these experimental conditions, CD26 released GP-OH in a time-dependent manner from GPG-NH2, and virtually completely converted GPG-NH2 to GP-OH and G-NH2 within 4 to 6 hrs of the reaction.
Next, the conversion of radiolabeled [^14C]GPG-NH2 to [^14C]G-NH2 by purified CD26, fetal bovine serum (FBS), human serum (HS) and CEM cell suspensions was analyzed. […] A variety of these [^14C]GPG-NH2 concentrations were exposed to purified CD26, FBS, HS and CEM cell suspensions and the conversion to G-NH2 was analyzed. […]

Data set [6] concerns HEL cell cultures. The data set is described as follows: Cytotoxicity in HEL cell cultures (cell morphology). Conditions: alteration of normal cell morphology.
For data set [7], the system named is HeLa cell cultures. The data set is described as follows: Cytotoxicity in HeLa cell cultures (cell morphology). Particulars: alteration of normal cell morphology.
The test system of data set [8] is Coxsackie virus B4. The data set is described as follows: Antiviral activity in Vero cell cultures, Coxsackie virus B4. It counts as cell-based. Here is the method:
(§1) The cytotoxicity and antiviral activity of various concentrations of G-NH2 and GPG-NH2 were evaluated in cell cultures that were infected with various types of viruses. Conventional host cell culture, viral infection, and infectivity analysis for each different type of cell and virus were followed. Compounds that were known to inhibit replication of the particular types of viruses analyzed were used as controls.

For data set [9], the system named is Vaccinia virus. The data set is described as follows: microbe, parasite or virus in culture. Particulars: Orthopoxvirus vaccinia, HEL, read-out: Minimum inhibitory concentration Vaccinia virus.
The test system of data set [10] is Parainfluenza-3 virus. The data set is described as follows: organism not typed. Particulars: Vero, read-out: Minimum inhibitory concentration Parainfluenza-3 virus.
For data set [11], the system named is Herpes simplex virus-1 TK^− KOS ACV^r. The data set is described as follows: microbe, parasite or virus in culture. Conditions: Human alphaherpesvirus 1, HEL, read-out: Minimum inhibitory concentration Herpes simplex virus-1 TK^− KOS ACV^r.
Data set [12] deals with Respiratory syncytial virus. The data set is described as follows: microbe, parasite or virus in culture. Conditions: human respiratory syncytial virus, HeLa, read-out: Minimum inhibitory concentration Respiratory syncytial virus.
The subject of data set [13] is Herpes simplex virus-2 (G). The data set is described as follows: microbe, parasite or virus in culture. Conditions: Human alphaherpesvirus 2, HEL, read-out: Minimum inhibitory concentration Herpes simplex virus-2 (G).
The subject of data set [14] is Coxsackie virus B4. The data set is described as follows: Antiviral activity in HeLa cell cultures, Coxsackie virus B4. In kind it is cell-based. As to the method: as §1
Data set [15] relates to Vesicular stomatitis virus. The data set is described as follows: microbe, parasite or virus in culture. Conditions: HeLa, read-out: Minimum inhibitory concentration Vesicular stomatitis virus.
Data set [16] concerns Vesicular stomatitis virus. The data set is described as follows: microbe, parasite or virus in culture. Particulars: HEL, read-out: Minimum inhibitory concentration Vesicular stomatitis virus.
For data set [17], the system named is Sindbis virus. The data set is described as follows: microbe, parasite or virus in culture. Conditions: Vero, read-out: Minimum inhibitory concentration Sindbis virus.
The subject of data set [18] is Vero cell cultures. The data set is described as follows: Cytotoxicity in Vero cell cultures (cell morphology). Particulars: alteration of normal cell morphology.
Data set [19] deals with Reovirus-1. The data set is described as follows: organism not typed. Conditions: Vero, read-out: Minimum inhibitory concentration Reovirus-1.
The test system of data set [20] is Herpes simplex virus-1 (KOS). The data set is described as follows: microbe, parasite or virus in culture. Particulars: Human alphaherpesvirus 1, HEL, read-out: Minimum inhibitory concentration Herpes simplex virus-1 (KOS).
In data set [21] the test system is Punta Toro virus. The data set is described as follows: microbe, parasite or virus in culture. Conditions: Vero, read-out: Minimum inhibitory concentration Punta Toro virus.
Data set [22] deals with HeLa cell cultures.
The test system of data set [23] is Vesicular stomatitis virus. Particulars: HeLa; reduces virus-induced cytopathogenicity by 50%. Background: Cytopathic effects are the visible damage that an infection or toxin causes in cultured cells.
The subject of data set [24] is Respiratory syncytial virus. Particulars: HeLa; reduces virus-induced cytopathogenicity by 50%.
Data set [25] has as its system Punta Toro virus. Conditions: Vero; reduces virus-induced cytopathogenicity by 50%.
The subject of data set [26] is Sindbis virus. Conditions: Vero; reduces virus-induced cytopathogenicity by 50%.
In data set [27] the test system is Vero cell cultures.
In data set [28] the test system is Parainfluenza-3 virus. Particulars: Vero; reduces virus-induced cytopathogenicity by 50%.
For data set [29], the system named is Reovirus-1. Conditions: Vero; reduces virus-induced cytopathogenicity by 50%.
In data set [30] the target is T2, dipeptidylpeptidase activity associated with BS (Bos taurus, UniProt P81425).
T2 construct: from tissue; host or cells: fetal bovine serum
T2 sequence (P81425 38-765 limits assumed): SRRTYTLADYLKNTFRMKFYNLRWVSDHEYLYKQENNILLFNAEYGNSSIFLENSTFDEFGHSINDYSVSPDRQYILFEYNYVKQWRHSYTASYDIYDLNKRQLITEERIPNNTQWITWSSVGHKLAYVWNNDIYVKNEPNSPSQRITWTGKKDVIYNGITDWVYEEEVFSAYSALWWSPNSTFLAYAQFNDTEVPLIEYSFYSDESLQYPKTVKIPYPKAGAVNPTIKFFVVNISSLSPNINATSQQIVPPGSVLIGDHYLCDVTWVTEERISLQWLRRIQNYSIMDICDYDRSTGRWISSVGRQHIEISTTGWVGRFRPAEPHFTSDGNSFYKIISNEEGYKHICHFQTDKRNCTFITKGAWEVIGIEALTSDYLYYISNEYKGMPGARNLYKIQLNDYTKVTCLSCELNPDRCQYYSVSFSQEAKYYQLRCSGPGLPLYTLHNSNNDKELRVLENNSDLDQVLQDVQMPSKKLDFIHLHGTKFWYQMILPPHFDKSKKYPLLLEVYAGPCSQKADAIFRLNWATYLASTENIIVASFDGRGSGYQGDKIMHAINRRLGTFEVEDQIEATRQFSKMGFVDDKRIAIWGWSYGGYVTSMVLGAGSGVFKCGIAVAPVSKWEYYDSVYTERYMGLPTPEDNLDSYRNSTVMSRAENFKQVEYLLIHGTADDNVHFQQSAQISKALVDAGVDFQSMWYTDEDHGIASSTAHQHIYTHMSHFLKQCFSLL
The data set is described as follows: Inhibition of dipeptidylpeptidase activity of fetal bovine serum (substrate GP-pNA). Particulars: read-out: 50% inhibitory concentration (IC50). It counts as biochemical.

[31] abbreviates: Enterovirus B, B4, reduces virus-induced cytopathogenicity by 50%, read-out: Minimum inhibitory concentration Coxsackie virus B4.
Where [32] appears, read: reduces virus-induced cytopathogenicity by 50%.

T1 sequence (P27487 whole entry): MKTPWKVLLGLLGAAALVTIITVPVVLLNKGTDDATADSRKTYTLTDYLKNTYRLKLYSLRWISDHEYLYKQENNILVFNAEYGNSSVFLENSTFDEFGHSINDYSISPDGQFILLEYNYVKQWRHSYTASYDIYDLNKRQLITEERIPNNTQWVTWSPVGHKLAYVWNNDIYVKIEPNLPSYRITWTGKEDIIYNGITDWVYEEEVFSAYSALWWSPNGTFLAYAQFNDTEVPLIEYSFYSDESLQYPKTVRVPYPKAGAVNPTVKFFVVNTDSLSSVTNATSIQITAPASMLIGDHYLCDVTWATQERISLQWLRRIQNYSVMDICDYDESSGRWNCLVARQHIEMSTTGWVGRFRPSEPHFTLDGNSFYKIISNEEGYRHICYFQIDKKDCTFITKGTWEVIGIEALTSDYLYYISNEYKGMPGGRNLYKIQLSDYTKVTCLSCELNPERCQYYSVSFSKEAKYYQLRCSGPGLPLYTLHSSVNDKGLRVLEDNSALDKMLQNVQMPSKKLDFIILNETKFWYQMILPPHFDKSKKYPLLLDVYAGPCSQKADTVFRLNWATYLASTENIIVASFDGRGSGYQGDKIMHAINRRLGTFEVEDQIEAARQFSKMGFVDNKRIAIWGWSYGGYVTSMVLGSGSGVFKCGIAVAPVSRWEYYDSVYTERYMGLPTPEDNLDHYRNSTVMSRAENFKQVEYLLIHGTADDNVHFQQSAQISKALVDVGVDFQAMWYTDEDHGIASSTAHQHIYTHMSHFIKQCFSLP

Take `NC(=O)CNC(=O)[C@@H]1CCCN1C(=O)[C@@H]1CCC(=O)N1` [PyrQ-PG-NH2, cyclic pyrroglutaminylprolylglycinamide] ([pGlu]-Pro-Gly-NH2): the EC50 in data set [1], in data set [2] and in data set [3] was > 2000 µM in each case. Further, in [4], the “inhibition of HIV replication in cell culture” value was “ineffective”. Moreover, in data set [5], the “release of G-NH2 by CD26” value was “unable to release G-NH2”.

With `O=c1[nH]c(=O)n([C@H]2C[C@H](O)[C@@H](CO)O2)cc1/C=C/Br` [BVDU], the “Minimum cytotoxic concentration” value in data set [6] was >400 µg/mL; in data set [7], “≧400 μg/ml”; in [18], >400 µg/mL. The EC50 in [8] (setting [31]) is > 400 µg/mL; in data set [9], 0.64 µg/mL (≈ 1.92 µM); in data set [10], > 400 µg/mL; in data set [11], 400 µg/mL (≈ 1200 µM); in data set [12] it was > 400 µg/mL; in data set [13] it was > 400 µg/mL. The EC50 in data set [14] (setting [31]) is > 400 µg/mL; in [15] it was > 400 µg/mL; in data set [16] it was 400 µg/mL (≈ 1200 µM); in data set [17], > 400 µg/mL; in [19], > 400 µg/mL; in data set [20], 0.0256 µg/mL (≈ 0.0768 µM). Also, the EC50 in data set [21] is > 400 µg/mL.

Turning to `Nc1ncnc2c1ncn2C[C@H](O)CO` [(S)-DHPA, reference compound], the Minimum cytotoxic concentration in data set [22] and in data set [27] was >400 µg/mL in each case. Moreover, the “Minimum inhibitory concentration Vesicular stomatitis virus” value in data set [23] turned out to be 240 µg/mL (≈ 1150 µM). Also, the “Minimum inhibitory concentration Coxsackie virus B4” value in data set [8] (setting [32]) and in data set [14] (setting [32]) was >400 µg/mL in each case. Moreover, the “Minimum inhibitory concentration Respiratory syncytial virus” value in [24] is >400 µg/mL. Also, in data set [25], the “Minimum inhibitory concentration Punta Toro virus” value is >400 µg/mL. The “Minimum inhibitory concentration Sindbis virus” value in data set [26] is >400 µg/mL. Besides, the “Minimum inhibitory concentration Parainfluenza-3 virus” value in data set [28] came out at 240 µg/mL (≈ 1150 µM). The “Minimum inhibitory concentration Reovirus-1” value in data set [29] was 80 µg/mL (≈ 382 µM).

Take `CCC(C)C(N)C(=O)N1CCCC1` [IlePyr, L-isoleucinepyrrolidine]: the IC50 in data set [30] was determined as 99 µM.
